Reference: ChEMBL document CHEMBL1201862, “PubChem BioAssay data set” (2004)
Activity calls are given as the source filed them.

Key:
[1] = target: Phospholipase A2 (Homo sapiens, UniProt P04054); type: functional;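 note: confirmatory dose-response counterscreen on phospholipase A2, testing hits that came from an ultra-high-throughput screen for ATG4B inhibitors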
[2] = target: T1, Cysteine protease ATG4B (Homo sapiens, UniProt Q9Y4P1); type: functional;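 note: Fluorescence-based dose-response confirmation assay measuring inhibition of ATG4B activity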
T1 sequence (Q9Y4P1 whole entry): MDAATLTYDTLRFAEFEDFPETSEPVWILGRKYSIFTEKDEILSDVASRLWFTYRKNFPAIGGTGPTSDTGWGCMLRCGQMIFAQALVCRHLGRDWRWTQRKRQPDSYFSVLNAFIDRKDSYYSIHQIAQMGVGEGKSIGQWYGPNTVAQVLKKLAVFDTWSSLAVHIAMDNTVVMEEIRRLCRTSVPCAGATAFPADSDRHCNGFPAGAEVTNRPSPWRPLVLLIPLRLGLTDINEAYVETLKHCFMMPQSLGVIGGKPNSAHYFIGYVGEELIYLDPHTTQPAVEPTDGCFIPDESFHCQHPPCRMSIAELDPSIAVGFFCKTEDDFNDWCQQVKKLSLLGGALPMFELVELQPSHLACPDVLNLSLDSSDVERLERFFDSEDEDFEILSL

[3] = target: T2, SUMO-activating enzyme (Homo sapiens, UniProt Q9UBT2); test: blockers of UBC9-mediated SUMO conjugation – biochemical, AlphaScreen, SUMOylation inhibitor project, confirmation (AID 2018); type: functional
[4] = target: Induced myeloid leukemia cell differentiation protein Mcl-1 (Homo sapiens, UniProt Q07820); type: functional
[5] = target: DNA (cytosine-5)-methyltransferase 1 (Homo sapiens, UniProt P26358); test: inhibition of DNA methylation by DNMT1 – biochemical, fluorescent molecular beacon, confirmation (AID 602386); type: functional
[6] = target: T2, SUMO-activating enzyme; test: blockers of SAE1/SAE2–UBC9 SUMO transfer – biochemical, HTRF, uHTS, primary screen (AID 2006); type: protein-complex assay
[7] = target: T3, Caspase-6 (Homo sapiens, UniProt P55212); test: inhibition of CASP6 peptide cleavage – biochemical, VEID-R110 fluorescence, cherry-pick, dose response (AID 720632)
T3 sequence (P55212 whole entry): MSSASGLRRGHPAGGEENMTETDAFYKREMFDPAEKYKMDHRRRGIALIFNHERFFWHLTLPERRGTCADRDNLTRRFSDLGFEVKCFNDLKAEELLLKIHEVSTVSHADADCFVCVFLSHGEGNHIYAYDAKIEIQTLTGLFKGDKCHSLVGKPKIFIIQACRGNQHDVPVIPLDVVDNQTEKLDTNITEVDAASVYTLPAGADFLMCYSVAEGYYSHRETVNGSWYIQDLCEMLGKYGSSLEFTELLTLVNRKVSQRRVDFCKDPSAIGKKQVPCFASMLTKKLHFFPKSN

[8] = target: Beta-2 adrenergic receptor (Homo sapiens, UniProt P07550); test: ADRB2 activation measured by internalization – cell-based, FAP fluorogen, flow cytometry, cherry pick 1, dose response (AID 588763); type: functional
[9] = target: FAD-linked sulfhydryl oxidase ALR (Homo sapiens, UniProt P55789); test: ALR-catalysed DTT oxidation blockers – biochemical, H2O2 detection, luminescence, cherry-pick, dose response (AID 493248)
[10] = target: T4, Sentrin-specific protease 6 (Homo sapiens, UniProt Q9GZR1); type: functional;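 note: Luminescence-based dose-response confirmatory assay of SENP6 inhibition, following up an ultra-high-throughput screen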
T4 sequence (Q9GZR1 whole entry): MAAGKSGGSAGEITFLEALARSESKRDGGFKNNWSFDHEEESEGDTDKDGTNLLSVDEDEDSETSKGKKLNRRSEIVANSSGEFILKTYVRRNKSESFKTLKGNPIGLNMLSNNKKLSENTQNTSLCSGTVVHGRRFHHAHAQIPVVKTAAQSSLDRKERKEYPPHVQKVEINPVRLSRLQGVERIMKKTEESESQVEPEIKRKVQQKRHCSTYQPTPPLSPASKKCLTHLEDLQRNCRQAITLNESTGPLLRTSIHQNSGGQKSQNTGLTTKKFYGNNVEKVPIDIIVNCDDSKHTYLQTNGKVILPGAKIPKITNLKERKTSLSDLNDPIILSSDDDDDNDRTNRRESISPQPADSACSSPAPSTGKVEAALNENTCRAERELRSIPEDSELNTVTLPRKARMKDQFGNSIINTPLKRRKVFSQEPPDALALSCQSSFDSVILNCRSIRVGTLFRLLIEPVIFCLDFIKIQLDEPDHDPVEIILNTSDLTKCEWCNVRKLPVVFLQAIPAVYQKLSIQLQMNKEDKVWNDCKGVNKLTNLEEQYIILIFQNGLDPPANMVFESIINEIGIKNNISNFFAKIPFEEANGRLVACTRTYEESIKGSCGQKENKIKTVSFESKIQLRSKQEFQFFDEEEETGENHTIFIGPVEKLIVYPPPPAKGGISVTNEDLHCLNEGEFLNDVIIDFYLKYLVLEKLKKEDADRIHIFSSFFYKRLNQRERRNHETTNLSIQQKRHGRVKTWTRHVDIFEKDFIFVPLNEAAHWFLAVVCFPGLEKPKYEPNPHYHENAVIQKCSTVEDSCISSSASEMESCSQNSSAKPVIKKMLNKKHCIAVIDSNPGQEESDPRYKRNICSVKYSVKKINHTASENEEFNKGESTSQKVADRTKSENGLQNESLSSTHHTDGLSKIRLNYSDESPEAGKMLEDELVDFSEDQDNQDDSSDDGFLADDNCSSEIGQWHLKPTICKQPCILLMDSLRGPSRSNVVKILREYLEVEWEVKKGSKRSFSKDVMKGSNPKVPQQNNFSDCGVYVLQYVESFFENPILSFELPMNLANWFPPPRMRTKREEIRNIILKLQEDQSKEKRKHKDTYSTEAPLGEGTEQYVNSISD

[11] = fluconazole-exposed Candida albicans growth modulators – fluorescence, retest, confirmation (AID 2467); type: functional, cell-based
[12] = test system: HeLa; test: ATP-based viability loss in HeLa cells – cell-based, CellTiter-Glo luminescence, cherry-pick samples, cytotoxicity control for MITF activator project, dose response (AID 540259); type: functional; settings: Homo sapiens
[13] = target: T5, Caspase-3 (Homo sapiens, UniProt P42574); type: functional;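 note: Dose-response selectivity test against caspase-3 for candidate inhibitors of sentrin-specific proteases (SENPs)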
T5 sequence (P42574 whole entry): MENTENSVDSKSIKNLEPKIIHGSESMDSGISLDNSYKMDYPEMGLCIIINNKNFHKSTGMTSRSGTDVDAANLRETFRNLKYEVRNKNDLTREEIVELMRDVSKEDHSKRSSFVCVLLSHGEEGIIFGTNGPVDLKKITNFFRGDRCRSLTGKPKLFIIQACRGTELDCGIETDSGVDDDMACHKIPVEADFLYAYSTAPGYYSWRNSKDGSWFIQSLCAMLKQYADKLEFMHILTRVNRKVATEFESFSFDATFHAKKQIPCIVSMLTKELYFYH

[14] = viability of uninfected HEp-2 cells – cell-based, HTS, cytotoxicity control for RSV inhibitor project, dose response (AID 2410); type: functional; settings: human respiratory syncytial virus
[15] = target: T6, Sentrin-specific protease 8 (Homo sapiens, UniProt Q96LD8); type: functional;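 note: luminescence read-out of SENP8 inhibition, dose-response confirmation following an ultra-high-throughput screen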
T6 sequence (Q96LD8 whole entry): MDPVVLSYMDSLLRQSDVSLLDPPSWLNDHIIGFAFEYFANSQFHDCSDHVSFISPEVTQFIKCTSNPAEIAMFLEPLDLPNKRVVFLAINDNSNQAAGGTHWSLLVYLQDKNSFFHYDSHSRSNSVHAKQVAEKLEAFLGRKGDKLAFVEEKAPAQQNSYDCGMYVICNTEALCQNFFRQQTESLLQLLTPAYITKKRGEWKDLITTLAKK

[16] = target: T7, Sentrin-specific protease 7 (Homo sapiens, UniProt Q9BQF6); type: functional;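 note: Luminescence-based dose-response confirmation of ultra-high-throughput screening hits, measuring inhibition of SENP7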
T7 sequence (Q9BQF6 whole entry): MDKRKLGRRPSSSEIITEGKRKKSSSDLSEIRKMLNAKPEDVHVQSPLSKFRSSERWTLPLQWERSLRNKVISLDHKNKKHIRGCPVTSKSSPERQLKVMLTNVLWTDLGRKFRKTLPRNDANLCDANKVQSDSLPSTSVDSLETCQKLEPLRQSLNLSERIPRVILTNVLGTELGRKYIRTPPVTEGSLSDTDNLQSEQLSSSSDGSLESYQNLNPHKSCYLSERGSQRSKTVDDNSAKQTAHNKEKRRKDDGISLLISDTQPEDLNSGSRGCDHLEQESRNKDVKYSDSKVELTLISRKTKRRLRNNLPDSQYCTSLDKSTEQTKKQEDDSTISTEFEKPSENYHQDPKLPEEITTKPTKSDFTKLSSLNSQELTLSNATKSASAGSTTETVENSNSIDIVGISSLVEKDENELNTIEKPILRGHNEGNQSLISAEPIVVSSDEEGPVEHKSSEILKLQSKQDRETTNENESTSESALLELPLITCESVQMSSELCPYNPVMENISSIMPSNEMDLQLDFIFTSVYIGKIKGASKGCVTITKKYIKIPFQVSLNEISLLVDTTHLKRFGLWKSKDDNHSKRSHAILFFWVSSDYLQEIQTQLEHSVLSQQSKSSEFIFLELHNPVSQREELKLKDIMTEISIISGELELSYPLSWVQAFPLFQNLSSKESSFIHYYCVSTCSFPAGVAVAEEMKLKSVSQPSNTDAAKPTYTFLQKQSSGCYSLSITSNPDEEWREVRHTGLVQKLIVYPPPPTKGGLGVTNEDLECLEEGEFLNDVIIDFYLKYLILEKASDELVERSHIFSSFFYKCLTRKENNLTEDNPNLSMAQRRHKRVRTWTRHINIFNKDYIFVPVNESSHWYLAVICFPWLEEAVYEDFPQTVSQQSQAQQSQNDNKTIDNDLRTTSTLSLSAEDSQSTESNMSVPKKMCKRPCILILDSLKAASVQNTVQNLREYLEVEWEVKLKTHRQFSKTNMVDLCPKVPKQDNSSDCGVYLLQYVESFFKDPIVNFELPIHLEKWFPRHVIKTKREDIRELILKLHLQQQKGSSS

[17] = NIH-3T3 fibroblast cytotoxicity, dose response, cytotoxicity control, cell-based, fluorescence, Alamar Blue, secondary assay (AID 2327); type: functional;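 note: NIH-3T3 mouse fibroblasts cultured with fluconazole at 8 µg/mL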

T2 sequence (Q9UBE0 whole entry): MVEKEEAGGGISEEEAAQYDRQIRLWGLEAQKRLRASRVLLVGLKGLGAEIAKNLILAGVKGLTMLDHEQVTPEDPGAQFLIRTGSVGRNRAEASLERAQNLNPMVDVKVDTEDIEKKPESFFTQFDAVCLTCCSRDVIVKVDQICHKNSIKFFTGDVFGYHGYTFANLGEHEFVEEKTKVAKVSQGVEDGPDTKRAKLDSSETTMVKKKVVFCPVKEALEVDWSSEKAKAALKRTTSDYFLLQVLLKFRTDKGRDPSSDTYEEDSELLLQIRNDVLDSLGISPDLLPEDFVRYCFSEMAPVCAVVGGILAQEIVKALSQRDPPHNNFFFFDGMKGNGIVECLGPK
T2 sequence (Q9UBT2 whole entry): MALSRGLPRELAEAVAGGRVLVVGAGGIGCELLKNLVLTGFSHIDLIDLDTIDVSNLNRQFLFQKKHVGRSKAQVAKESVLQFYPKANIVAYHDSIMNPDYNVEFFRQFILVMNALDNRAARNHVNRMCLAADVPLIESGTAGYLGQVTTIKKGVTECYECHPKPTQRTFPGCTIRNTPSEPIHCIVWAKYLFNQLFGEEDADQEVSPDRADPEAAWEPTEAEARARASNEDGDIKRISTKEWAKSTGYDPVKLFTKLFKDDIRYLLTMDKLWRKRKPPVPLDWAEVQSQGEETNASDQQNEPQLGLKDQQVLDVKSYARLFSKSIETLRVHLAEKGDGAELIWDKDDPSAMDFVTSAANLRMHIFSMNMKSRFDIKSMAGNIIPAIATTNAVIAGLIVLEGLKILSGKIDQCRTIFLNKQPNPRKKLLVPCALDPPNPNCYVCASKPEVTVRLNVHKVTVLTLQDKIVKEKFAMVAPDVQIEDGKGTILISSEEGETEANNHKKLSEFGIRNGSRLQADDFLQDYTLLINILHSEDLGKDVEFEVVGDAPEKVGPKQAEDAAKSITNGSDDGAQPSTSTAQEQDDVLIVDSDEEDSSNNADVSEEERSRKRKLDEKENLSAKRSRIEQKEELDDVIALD
Chain of Phospholipase A2 (P04054 whole entry): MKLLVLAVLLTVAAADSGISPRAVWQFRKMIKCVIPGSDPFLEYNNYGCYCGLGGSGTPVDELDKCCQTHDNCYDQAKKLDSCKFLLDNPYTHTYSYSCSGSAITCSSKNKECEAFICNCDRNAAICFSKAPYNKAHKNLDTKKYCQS
Chain of DNA (cytosine-5)-methyltransferase 1 (P26358 whole entry): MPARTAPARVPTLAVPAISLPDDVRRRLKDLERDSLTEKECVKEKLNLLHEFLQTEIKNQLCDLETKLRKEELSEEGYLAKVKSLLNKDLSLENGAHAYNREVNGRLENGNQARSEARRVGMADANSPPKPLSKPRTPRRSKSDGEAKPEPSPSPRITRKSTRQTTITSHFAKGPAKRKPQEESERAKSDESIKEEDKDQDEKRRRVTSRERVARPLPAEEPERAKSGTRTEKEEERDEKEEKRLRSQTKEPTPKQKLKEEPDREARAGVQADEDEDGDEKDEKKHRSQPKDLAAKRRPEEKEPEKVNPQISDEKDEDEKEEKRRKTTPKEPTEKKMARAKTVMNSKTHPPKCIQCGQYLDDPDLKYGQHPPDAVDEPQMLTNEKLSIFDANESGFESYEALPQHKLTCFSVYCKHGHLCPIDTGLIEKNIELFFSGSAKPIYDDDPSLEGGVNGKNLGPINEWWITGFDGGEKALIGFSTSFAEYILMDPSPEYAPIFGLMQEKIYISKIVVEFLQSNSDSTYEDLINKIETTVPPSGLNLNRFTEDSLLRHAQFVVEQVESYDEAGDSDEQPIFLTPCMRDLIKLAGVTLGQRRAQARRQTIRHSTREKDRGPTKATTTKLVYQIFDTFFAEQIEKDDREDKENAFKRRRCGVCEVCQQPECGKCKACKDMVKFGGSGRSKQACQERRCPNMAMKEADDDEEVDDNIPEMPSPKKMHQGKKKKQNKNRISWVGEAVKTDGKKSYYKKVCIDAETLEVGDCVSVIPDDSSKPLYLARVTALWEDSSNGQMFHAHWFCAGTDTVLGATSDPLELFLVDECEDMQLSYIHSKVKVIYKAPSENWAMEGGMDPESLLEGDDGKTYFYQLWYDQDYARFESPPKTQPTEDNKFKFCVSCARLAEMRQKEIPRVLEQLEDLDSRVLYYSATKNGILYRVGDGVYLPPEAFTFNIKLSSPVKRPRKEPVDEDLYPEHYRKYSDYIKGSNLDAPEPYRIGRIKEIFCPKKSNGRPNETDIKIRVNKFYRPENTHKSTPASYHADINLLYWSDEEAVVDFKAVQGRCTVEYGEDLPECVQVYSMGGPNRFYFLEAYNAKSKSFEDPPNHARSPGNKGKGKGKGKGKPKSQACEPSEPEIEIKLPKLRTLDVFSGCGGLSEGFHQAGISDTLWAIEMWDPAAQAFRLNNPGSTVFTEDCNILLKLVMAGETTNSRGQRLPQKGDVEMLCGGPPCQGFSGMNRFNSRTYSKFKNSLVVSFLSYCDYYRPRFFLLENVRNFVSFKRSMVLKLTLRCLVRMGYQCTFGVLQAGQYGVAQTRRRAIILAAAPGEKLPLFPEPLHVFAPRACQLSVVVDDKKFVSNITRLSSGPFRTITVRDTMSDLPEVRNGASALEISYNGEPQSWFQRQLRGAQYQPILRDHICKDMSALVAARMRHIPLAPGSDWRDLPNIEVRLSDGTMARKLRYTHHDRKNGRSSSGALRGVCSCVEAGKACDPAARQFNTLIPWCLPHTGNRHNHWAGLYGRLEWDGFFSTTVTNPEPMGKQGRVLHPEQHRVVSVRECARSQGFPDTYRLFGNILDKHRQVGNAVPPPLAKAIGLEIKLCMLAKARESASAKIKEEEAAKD
Chain of Induced myeloid leukemia cell differentiation protein Mcl-1 (Q07820 whole entry): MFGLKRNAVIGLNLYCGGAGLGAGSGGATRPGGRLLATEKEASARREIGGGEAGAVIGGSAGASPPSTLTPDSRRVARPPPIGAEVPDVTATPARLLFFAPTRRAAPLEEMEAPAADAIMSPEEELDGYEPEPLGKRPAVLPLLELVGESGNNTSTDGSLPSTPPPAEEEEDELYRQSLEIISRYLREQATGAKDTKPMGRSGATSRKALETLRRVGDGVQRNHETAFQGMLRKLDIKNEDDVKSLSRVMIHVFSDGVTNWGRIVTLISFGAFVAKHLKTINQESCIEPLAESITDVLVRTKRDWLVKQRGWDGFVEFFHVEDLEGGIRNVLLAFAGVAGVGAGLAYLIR
Chain of Beta-2 adrenergic receptor (P07550 whole entry): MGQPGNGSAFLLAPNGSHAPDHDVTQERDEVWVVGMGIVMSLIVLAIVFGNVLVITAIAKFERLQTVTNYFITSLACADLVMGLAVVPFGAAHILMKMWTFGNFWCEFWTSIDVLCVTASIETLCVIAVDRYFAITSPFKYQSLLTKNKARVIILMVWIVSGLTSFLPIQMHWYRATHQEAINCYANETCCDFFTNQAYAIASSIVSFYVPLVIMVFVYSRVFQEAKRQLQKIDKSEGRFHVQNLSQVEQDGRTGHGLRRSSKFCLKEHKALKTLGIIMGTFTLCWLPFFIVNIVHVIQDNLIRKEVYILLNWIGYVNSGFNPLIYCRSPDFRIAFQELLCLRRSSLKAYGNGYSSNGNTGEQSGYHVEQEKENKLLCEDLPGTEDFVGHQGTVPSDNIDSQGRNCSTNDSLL
Chain of FAD-linked sulfhydryl oxidase ALR (P55789 whole entry): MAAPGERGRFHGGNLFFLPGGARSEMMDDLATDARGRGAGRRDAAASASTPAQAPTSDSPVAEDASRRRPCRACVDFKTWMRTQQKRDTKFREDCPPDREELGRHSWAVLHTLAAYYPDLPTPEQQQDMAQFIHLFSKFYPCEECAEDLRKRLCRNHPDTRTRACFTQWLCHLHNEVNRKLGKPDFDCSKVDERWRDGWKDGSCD

Cc1nc2c(C(=O)NCc3ccccc3Cl)cnn2c(O)c1Cl
active: IC50 [1] 12.6 µM | IC50 [2] 11 µM

CN(c1ccccc1)c1ccc(/C=C(\CCC(=O)O)c2nc3ccccc3s2)cc1[N+](=O)[O-]
active: IC50 [3] 1.65 µM | IC50 [1] 5.31 µM | IC50 [2] 4.31 µM | IC50 [4] 2.27 µM | IC50 [5] 5.34 µM | IC50 [6] 16.8 µM | AC50 [7] 24.2 µM

Cc1ccc(CS(=O)(=O)c2nc3c(c(N(C)C)n2)CCCC3)cc1
active: EC50 [8] 0.0813 µM

CC(=O)Nc1cccc(-c2csc(Nc3ccc(C)cn3)n2)c1
active: AC50 [9] 0.169 µM | IC50 [10] 12.7 µM | EC50 [11] 4.04 µM | AC50 [12] 40 µM | IC50 [13] 39.7 µM | CC50 [14] > 50 µM | IC50 [15] 17.5 µM | IC50 [16] 4.13 µM | EC50 [17] 25.8 µM
